Data from US20030092010A1, “Molecular switches” (priority 1999, published 2003).
*1 amine or outer side, *2 acyl side, *3 side chain or, on linkers, in order; H or OH if unused. Where a SMILES comes first, the peptide text is derived from it. Bridges are numbered along the chain shown (N, C = ends). Roman numbers before positions name the chains, in order. [ ]: non-standard residue; d: D form. Actinocin(9to1) = Cc1c2oc3c(C)ccc(C(=O)[*:1])c3nc-2c(C(=O)[*:2])c(N)c1=O; NMeV = CN[C@H](C(=O)O)C(C)C; Sar = CNCC(=O)O

Tests used:
[1] = tested on: CAT reporter gene downstream of the sequence AAAAAAGGCG; assay: transient transfection CAT reporter assay with zinc finger-HSV VP16 fusion; type: cell-based; conditions: in the presence of Distamycin A; zinc finger-HSV VP16 fusion cotransfected
Source text: A reporter system is produced which produces a reporter signal conditionally depending on the binding of the zinc finger DNA binding molecule to its target DNA sequence.
A transient transfection system using zinc finger transcription factors is produced as described in Choo, Y., et al., (1997) J. Mol. Biol 273:525-532. This system comprises an expression plasmid which produces a phage-selected zinc finger fused to the activation domain of HSV VP 16. and a reporter plasmid which contains the recognition sequence of the zinc finger upstream of a CAT reporter gene.
Thus, a zinc finger which recognises the DNA sequence AAAAAAGGCG is selected by phage display as described in Example 1. By the method of the preceding examples said zinc finger is used to construct transcription factors as described above.
A transient expression experiment is conducted, wherein the CAT reporter gene on the reporter plasmid is placed downstream of the sequence AAAAAAGGCG. The reporter plasmid is cotransfected with a plasmid vector expressing the zinc finger-HSV fision under the control of a constitutive promoter. No activation of CAT gene expression is observed.

DNA sequence AAAAAGGCG = assay: phage ELISA: zinc finger phage binding to DNA target site in presence and absence of distamycin A; conditions: FIG. 1; phage clone 3 (3/2F) and clone 4 (4/EF)
[2] = tested on: DNA target AAAAAGCGGAAAAA; assay: dissociation of zinc finger phage from DNA target by distamycin A; type: binding
Procedure: (§1) This example describes phage that bound DNA targets with higher affinity in the absence of ligand. These phage were isolated using either: (a) the same method as in example 1.1, or (b) by selection in the absence of small molecule and phage elution from DNA using a small molecule.
(§2) Phage selection is over 4 rounds. Binding reactions contain […] biotinylated DNA site immobilised on 50 mg streptavidin coated beads (Dynal) and a 1 ml solution of ;zinc finger phage library (as described in 1.1) Reactions were incubated for 1 h on a rolling platform. After this time, beads were washed 20 times as described in 1.1 and finally phage were eluted from the beads over 5 minutes using a solution containing ligand (10 μM Distamycin A, or 1 μM Actinomycin D in PBS/Zn).
Some phage isolated by either of the above methods (a or b) bound DNA in the absence of ligand but could be displaced by concentrations of distamycin A at 10 μM and actinomycin D at 1 μM. The distamycin sensitive clone was selected using the DNA target AAAAAGCGGAAAAA and its helices were sequenced as: […]

DNA target AGCTTGGCG = assay: dissociation of zinc finger phage from DNA target by actinomycin D; type: binding
Procedure: as §1, §2
The actinomycin D sensitive clone was selected with the DNA target AGCTTGGCG and its helices were sequenced as: […]

DNA sequence AGCTTGGCG = assay: phage ELISA: zinc finger phage binding to DNA target in presence and absence of actinomycin D; conditions: FIG. 2; phage AD clone 1 and 6
Procedure: Essentially the method was the same as used in the previous section using four rounds of a preselection step followed by a selection step, washing and elution. Differences in the method are described. The preselection step comprised of 7.5 μmol of biotinylated DNA target site immobilised on 18.75 μl streptavidin coated beads (Dynal) in a 100 μl mixture containing 4 μl phage library 96 μl PBS, 2% Marvel. 1% Tween-20. 50 μM ZnCl2 for 1 hour at room temperature with constant mixing. Phage selections were made in streptavidin coated tubes with the phage supernatant, 5 nM biotinylated target DNA, 10 μM actinomycin D in the presence of 1 μg poly [d(I-C)] competitor. The selections were incubated for 1 hour at room temperature. The bound phage were washed and eluted as described above.
ELISA was performed as described above but using 5 nM biotinylated target DNA. 0.25 μg poly[d(I−C)] competitor in the assay and 10 μM actinomycin D where appropriate. Phage were sequenced using Big Dye Terminator Cycle Sequencing Kit (Perkin Elmer Biosystems) and automated sequencing.

[3] = phage bound DNA in the absence of ligand

SMILES | CAT reporter gene expression [1] | effect of Distamycin A concentration on binding of phage to the DNA sequence AAAAAGGCG (DNA sequence AAAAAGGCG) | dissociation / displacement of phage from DNA by distamycin A ([2]; FIG. 6, distamycin sensitive clone) | distamycin A concentration at which DNA-bound phage could be displaced [2, 3] [µM] | dissociation / displacement of phage from DNA by actinomycin D (DNA target AGCTTGGCG; FIG. 6, actinomycin D sensitive clone) | actinomycin D concentration at which DNA-bound phage could be displaced (DNA target AGCTTGGCG; [3]) [µM] | effect of Actinomycin D concentration on binding of phage to the DNA sequence AGCTTGGCG (DNA sequence AGCTTGGCG)
Cn1cc(NC(=O)c2cc(NC(=O)c3cc(NC=O)cn3C)cn2C)cc1C(=O)NCCC(=N)N [Distamycin A] | CAT expression is observed | causes phage binding to nucleic acid | dissociated from the DNA | 10 |  |  | 
Cc1c2oc3c(C)ccc(C(=O)N[C@@H]4C(=O)N[C@H](C(C)C)C(=O)N5CCC[C@H]5C(=O)N(C)CC(=O)N(C)[C@@H](C(C)C)C(=O)O[C@@H]4C)c3nc-2c(C(=O)N[C@@H]2C(=O)N[C@H](C(C)C)C(=O)N3CCC[C@H]3C(=O)N(C)CC(=O)N(C)[C@@H](C(C)C)C(=O)O[C@@H]2C)c(N)c1=O [Actinomycin D] (I: T[dV]P[Sar][NMeV] / II: T[dV]P[Sar][NMeV]; ester I:1-I:C, II:1-II:C; linker I:N-II:N via Actinocin(9to1)) |  |  |  |  | dissociated from the DNA | 1 | causes phage binding to nucleic acid
